Source: patent US5846720A, “Methods of determining chemicals that modulate expression of genes associated with cardiovascular disease” (Oncogene Science, Inc., priority 1996, dated 1998)
Read-outs that look alike come from different tables or passages of the source.

Key:
[1] = tested on: hGH promoter; test: hGH promoter/luciferase reporter assay (high-throughput screen I), 532 cells; type: cell-based, rat; details: Table 2, 6 h incubation; for hGH fold induction relative to solvent control: transcriptional activators; for hGH fold inhibition relative to solvent control: transcriptional inhibitors
Description: 6. a GC rat pituitary cell line, transfected with the growth hormone reporter plasmid, designated 532, deposited under ATCC Accession No. CRL 10663.

[2] = tested on: MMTV promoter; test: MMTV promoter/luciferase reporter assay (high-throughput screen I, control for specificity), M10 cells; type: cell-based, mouse; details: Table 2, 6 h incubation; for MMTV fold induction relative to solvent control: transcriptional activators, original high-throughput assay; for MMTV fold inhibition relative to solvent control: transcriptional inhibitors
Protocol: pMluci and pSV2Neo, an antibiotic resistance plasmid (84), were co-transfected into NIH/3T3 mouse fibroblast cells using the calcium phosphate precipitation method (85) with a commercially available kit (Pharmacia, Piscataway N.J.). Two days later, cells were transferred to media containing 0.4 mg/ml G418 and were grown for an additional 10-14 days. G418-resistant clones were isolated by standard methods. Once sufficient cell numbers were obtained, clones were analyzed based on several criteria: constitutive luciferase production, induction of luciferase expression by dexamethasone ([…], Sigma, St. Louis, Mo.), satisfactory attachment to microtiter plates used in the high-throughput screen (see section G) and acceptable standard deviation in multiple luciferase expression assays (see below for assay protocol). This analysis was carried out using the luciferase assay conditions described above. Of the clones which satisfied the above criteria for the high throughput screen, one clone, M10, was selected for use.

[3] = tested on: G-CSF promoter; test: G-CSF promoter/luciferase reporter assay (high-throughput screen I), G21 cells; details: for GCSF fold induction relative to solvent control: transcriptional activators
[4] = transcriptional inhibitors, Table 2, 6 h incubation

SMILES	hGH fold induction relative to solvent control [1] [fold]	MMTV fold induction relative to solvent control [2] [fold]	GCSF fold induction relative to solvent control ([3]; Table 2, 6 h incubation) [fold]	hGH fold inhibition relative to solvent control [1] [fold]	MMTV fold inhibition relative to solvent control [2] [fold]	GCSF fold inhibition relative to solvent control [3, 4] [fold]	GCSF fold inhibition relative to solvent control [3]
O=C(O)c1[nH]c(=O)[nH]c(=O)c1I [Chemical 633]	0.86	2.46	1.02				
Nc1c(O)c(S(=O)(=O)O)c(O)c2c1C(=O)c1ccccc1C2=O [Chemical 640]				5.00	0.59	0.64	
O=C(c1ccc(O)c(O)c1)c1c(O)cc(O)cc1O [Chemical 660]				0.34	1.04	10.0	
CN(C)c1ccc(C(=C2C=CC(=[N+](C)C)C=C2)c2ccc([N+](C)(C)C)cc2)cc1 [Chemical 670]	0.52	0.79	> 3				
C1CCNCC1 [Chemical 759]				5.88	0.95		0.64
CC(=O)OCC(=O)[C@@]1(O)CC[C@H]2[C@@H]3CCC4=CC(=O)C=C[C@]4(C)[C@H]3[C@@H](O)C[C@@]21C [Chemical 765]	1.30	2.66	0.96				
CCOc1ccc2nc3cc(N)ccc3c(N)c2c1 [Chemical 790]	5.94	0.58	0.01				
O=C1OC2(c3cc(I)c(O)c(I)c3Oc3c2cc(I)c(O)c3I)c2c(Cl)c(Cl)c(Cl)c(Cl)c21 [Chemical 792]	5.31	1.21	0.94				
NC(=O)c1ccccc1O [Chemical 798]				0.90	0.68	4.76	
Clc1ccc(Sc2cc(Cl)c(Cl)cc2Cl)cc1 [Chemical 828]	1.34	2.20	1.47				
N=c1ccc2nc3ccc(N)cc3sc-2c1 [Chemical 836]	0.23	0.58	3.20				
CC1(C)O[C@@H]2C[C@H]3[C@@H]4CCC5=CC(=O)C=C[C@]5(C)[C@@]4(F)[C@@H](O)C[C@]3(C)[C@]2(C(=O)CO)O1 [Chemical 848]	1.28	2.43	0.75				
CCCCCCCCCCCCCCCC(=O)OCC(COC(=O)CCCCCCCCCCCCCCC)OC(=O)CCCCCCCCCCCCCCC [Chemical 856]	6.49	0.42	0.28				
Nc1ccc(C=CC(=O)O)cc1 [Chemical 1234]	0.51	1.03	4.97				
Cc1c(C2(c3cc(Br)c(O)c(Br)c3C)OS(=O)(=O)c3ccccc32)cc(Br)c(O)c1Br [Chemical 1251]	15.19	0.33	0.14				
Clc1cc(Cl)cc(Br)c1 [Chemical 1255]	0.43	1.09	6.74				
Nc1c(Cl)ncnc1Cl [Chemical 1269]	0.91	2.18	0.72				
Nc1ccc2c(c1)Cc1ccccc1-2 [Chemical 1316]	1.39	2.33	0.74				
Nc1ccc2c(c1)C(=O)c1ccccc1-2 [Chemical 1318]	0.85	2.41	1.13				
Nc1ccc(S(=O)(=O)O)c2cccc(O)c12 [Chemical 1337]	15.87	0.23	0.07				

SMILES	hGH fold induction relative to solvent control [1] [fold]	MMTV fold induction relative to solvent control [2] [fold]	GCSF fold induction relative to solvent control ([3]; Table 2, 6 h incubation) [fold]	hGH fold inhibition relative to solvent control [1] [fold]	MMTV fold inhibition relative to solvent control [2] [fold]	GCSF fold inhibition relative to solvent control [3, 4] [fold]	GCSF fold inhibition relative to solvent control [3]
NCc1ccc(S(N)(=O)=O)cc1 [Chemical 1375]	0.04	1.37	8.94				
Cc1ccc(N)c(S(=O)(=O)O)c1 [Chemical 1376]	0.04	1.32	6.37				
Cc1ccc(C(=O)c2ccccc2N)cc1 [Chemical 1384]	0.50	2.43	1.33				
Cc1cc(N)sn1 [Chemical 1397]	0.57	1.13	3.63				
Nc1ccccc1SSc1ccccc1N [Chemical 1482]	0.54	1.07	3.99				
Nc1ccc(SSc2ccc(N)cc2)cc1 [Chemical 1483]	0.38	1.09	4.64				
Nc1nc(-c2ccccc2)cs1 [Chemical 1499]	5.55	0.61	0.24				
Nc1nc2nc[nH]c2c(=S)[nH]1 [Chemical 1521]	0.73	0.92	3.59				
Nc1nccs1 [Chemical 1550]	5.44	0.87	0.04				
NC1=NCCS1 [Chemical 1552]	7.26	0.52	1.23				
Nc1c(Cl)c(Cl)nc(C(=O)O)c1Cl [Chemical 1561]	8.05	0.48	0.23				
Brc1ccc2c3c(cccc13)CC2 [Chemical 1573]	0.34	4.30	1.49				
Nc1ncnc2c1nc(Br)n2[C@@H]1O[C@H](CO)[C@@H](O)[C@H]1O [Chemical 1583]	0.12	0.88	5.82				
Cc1ccc(P(CCP(c2ccc(C)cc2)c2ccc(C)cc2)c2ccc(C)cc2)cc1 [Chemical 1591]				5.55	0.96	0.56	
CC1(C)[C@@H](C(=O)OCC(F)(F)C(F)(F)C(F)(F)C(F)(F)C(F)(F)C(F)F)CC[C@@]1(C)C(=O)OCC(F)(F)C(F)(F)C(F)(F)C(F)(F)C(F)(F)C(F)F [Chemical 1592]	0.74	1.34	3.20				
O=C(Nc1cccc(C2=NCCN2)c1)Nc1cccc(C2=NCCN2)c1 [Chemical 1598]	5.32	1.27	0.72				
O=S(=O)(O)c1ccc(-c2nnc(-c3ccnc(-c4nnc(-c5ccc(S(=O)(=O)O)cc5)c(-c5ccc(S(=O)(=O)O)cc5)n4)c3)nc2-c2ccc(S(=O)(=O)O)cc2)cc1 [Chemical 1604]				5.00	0.97	0.77	
CC1(C)[C@H]2CC[C@]1(C)[C@H](O)C2 [Chemical 1635]				9.09	0.99	0.71	
C(=Cc1ccccn1)c1ccccn1 [Chemical 1640]				5.00	0.59	0.79	
c1ccc(-c2nccnc2-c2ccccn2)nc1 [Chemical 1641]				5.55	0.60	0.83	
